“And” between values parts separate entries of the source, which are not always exact repeats. Equal entries are not always repeated. “Also recorded” adds a separate entry of the source.
Legend:
[1] = tested on: Posterior Pituitary GABAA Receptor; assay: Desensitization of the GABAA receptor during sustained GABA application, whole-terminal recordings; format: cell-based; parameters: Time constant of desensitization, GABA with steroid: dose or concentration left out as unconfirmed; conditions: for Desensitization Time-Constant Ratio: (GABA+steroid)/GABA, geometric mean, allopregnanolone 100 nM, estradiol-17β 100 nM; for Time constant of desensitization, GABA with steroid: sustained application of GABA in the presence of steroid, same terminals as controls
From the text: FIGS. 3A and 3B are whole terminal recordings showing the GABA desensitizing effect of certain neuroactive steroids on the GABAA receptor. […] 3B illustrates the effect of allopregnanolone.
Sustained application of GABA desensitized the receptor with a time constant of 9.5±0.5 sec (n=3). […] Similar results were obtained with allopregnanolone; the average time constant for desensitization was 9.1±1.8 sec with GABA alone and 10.2±1.7 sec (n=3) with GABA and allopregnanolone.
(§1) Measurements were made in nerve terminals for responses to GABA alone or GABA+steroid. The ratios were computed as (GABA+steroid)/GABA, and the geometric means were computed for the indicated number of ratios. The * indicates statistical significance at the level of P<0.05. […] The single-channel activity was determined from Po using all-points histograms such as those shown in FIGS. 4B and 4D, as described in METHODS. The GABA concentration was […] for the first two columns and 1 mM for the last column.

[2] = Treatment and prevention of hypertension in borderline hypertensive patients (Example 2); format: in vivo, human; conditions: daily high physiological dosage, after one year, versus placebo; expected
From the text: An experiment is run with study group of patients who are borderline hypertensive. Half of the group is given daily a high physiological dosage of allepregnanolone. The remaining patients are placed on placebo.

[3] = tested on: Posterior Pituitary GABAA Receptor; assay: Whole-terminal patch clamp recording of GABA responses in posterior pituitary nerve terminals; format: cell-based; conditions: for Effect on GABA-activated Cl- current / GABAA receptor responses of nerve terminals (in words): posterior pituitary nerve terminals
Procedure: as §1

[4] = tested on: Posterior Pituitary GABAA Receptor; assay: GABA-gated Cl- single-channel currents in outside-out patches excised from posterior pituitary nerve terminals; format: cell-based
Procedure: as §1

[5] = Oral contraceptive containing neuroactive steroid in premenopausal women (Example 3); format: in vivo, human; conditions: progesterone containing oral contraceptive with neuroactive steroid, two years; expected
From the text: An experiment is run with a study group of premenopausal women. Half of the group is placed on a progesterone containing oral contraceptive which also contains a neuroactive steroid such as allepregnanolone. The other half of the study group is given the same oral contraceptive but without neuroactive steroid. The study is run for two years and the group is regularly evaluated for its cardiovascular status.

SMILES	Desensitization Time-Constant Ratio [1]	Time constant of desensitization, GABA with steroid [1] [s]	Blood pressure relative to control [2]	Effect on GABA-activated Cl- current / GABAA receptor responses of nerve terminals (in words) [3]	Effect on GABA-activated single-channel activity (in words) [4]	Cardiovascular status compared to control [5]	Effect on rate of desensitization (in words) ([1]; sustained GABA application)	GABA responses as % of controls ([3]; estradiol-17β 100 nM, n=6) [%]	Time constant of desensitization, GABA alone ([1]; sustained application of GABA alone (controls of the alphaxalone, allopregnanolone and estradiol-17β experiments, in this order))
CC(=O)[C@H]1CC[C@H]2[C@@H]3CC[C@H]4C[C@H](O)CC[C@]4(C)[C@H]3CC[C@]12C [Allopregnanolone, 3α-hydroxy-5α-pregnan-20-one]	1.14	10.2 ± 1.7	significantly lower blood pressure relative to control	potentiated; also recorded: strongly enhanced	more channel activity than GABA alone; also recorded: clearly increased	significantly better cardiovascular status compared to control			
CC(=O)[C@H]1CC[C@H]2[C@@H]3CC[C@H]4C[C@H](O)CC[C@]4(C)[C@H]3C(=O)C[C@]12C [Alphaxalone, alphaxalone]		8.9 ± 0.5							
C[C@]12CC[C@@H]3c4ccc(O)cc4CC[C@H]3[C@@H]1CC[C@@H]2O [Estradiol-17β]	0.90	7.9 ± 1.9		weak inhibitory effect	went down slightly		failed to alter the rate of desensitization	78	
NCCCC(=O)O [GABA]									9.5 ± 0.5 s and 9.1 ± 1.8 s and 9.2 ± 0.2 s

Reference: patent US5763431A, “Method for regulating neuropeptide hormone secretion” (priority 1996, dated 1998)
